Assay results taken from patent US20050164929A1, “Methods of preventing and treating inflammatory bowel disease” (LUPINE LOGIC, INC., priority 2000, published 2005).

Legend:
[1] = tested on: NIH 3T3 murine embryonic fibroblast cells; test: BrdU incorporation bioassay of RP-HPLC peak fractions; format: cell-based, mouse; conditions: BrdU incorporation
Description: The biological activity of CG53135-05 related species collected from the 4 peaks identified by LC and MS was measured by treatment of serum-starved cultured NIH 3T3 murine embryonic fibroblast cells with various doses of the isolated CG53135-05 related species and measurement of incorporation of bromodeoxyuridine (BrdU) during DNA synthesis. For this assay, cells were cultured in Dulbecco's modified Eagle's medium supplemented with 10% fetal bovine serum. Cells were grown in 96-well plates to confluence at 37° C. in 10% CO2/air and then starved in Dulbecco's modified Eagle's medium for 24-72 hours. CG53135-05-related species were added and incubated for 18 hours at 37° C. in 10% CO2/air. BrdU ([…]) was added and incubated with the cells for 2 hours at 37° C. in 10% CO2/air. Incorporation of BrdU was measured by enzyme-linked immunosorbent assay according to the manufacturer's specifications (Roche Molecular Biochemicals, Indianapolis, Ind.).
Peak 4 was not included in this assay since insufficient material was collected (Peak 4 is less than 3% of the total peak area for CG53135-05).

[2] = tested on: mesenchymal and epithelial cells; test: Proliferation summary for variants; format: cell-based; conditions: in vitro
Description: (§1) Experiments were performed to evaluate the proliferative response of representative cell types to CG53135, e.g., a full-length tagged variant (CG53135-01), a deletion variant (CG53135-02), and a full-length codon-optimized untagged variant (CG53135-05).
(§2) CG53135-02 (batch 1 and 13) was also used in these experiments. Protein was expressed in E. coli, BLR (DE3) (Novagen), transformed with the deletion variant CG53135-02 inserted into a pET24a vector (Novagen). A research cell bank (RCB) was produced and cell paste containing CG53135-02 was produced by fermentation of cells originating from the RCB. Cell membranes were disrupted by high-pressure homogenization, and lysate was clarified by centrifugation. CG53135-02 was purified by ion exchange chromatography. The final protein fraction was dialyzed against the formulation buffer (100 mM citrate, 1 mM ethylenediaminetetraacetic acid (EDTA), and 1 M L-arginine).
(§3) CG53135-05, DEV10, which were also used in these experiments, was prepared by Cambrex Biosciences (Hopkinton, Mass.) according to Process 1 as described in Section 6.18.1, infra.
(§4) BrdU Incorporation: proliferative activity was measured by treatment of serum-starved cultured cells with a given agent and measurement of BrdU incorporation during DNA synthesis. Cells were cultured in respective manufacturer recommended basal growth medium supplemented with 10% fetal bovine serum or 10% calf serum as per manufacturer recommendations. Cells were grown in 96-well plates to confluence at 37° C. in 10% CO2/air (to subconfluence at 5% CO2 for dedifferentiated chondrocytes and NHOst). Cells were then starved in respective basal growth medium for 24-72 hours. CG53135 protein purified from E. coli or pCEP4/Sec or pCEP4/Sec-FGF 20× enriched conditioned medium was added (10 μL/100 μL of culture) for 18 hours. BrdU (10 μM final concentration) was then added and incubated with the cells for 5 hours. BrdU incorporation was assayed according to the manufacturer's specifications (Roche Molecular Biochemicals, Indianapolis, Ind.).
(§5) The above described experiments were also performed using CG53135-02 and CG53135-05 protein products, and the results are summarized in the Conclusion section below.

endothelial cells = test: Proliferation summary for variants; format: cell-based; conditions: in vitro
Description: as §1, §2, §3, §4, §5

[3] = tested on: chronic DSS-induced ulcerative colitis in female Swiss Webster mice; test: Chronic DSS colitis, every other day dosing (N-405); format: in vivo, mouse; conditions: 3.33 mg/kg (UV) IP on Days 6, 8, 10, 12, 14 (q2d)
[4] = tested on: DSS-induced ulcerative colitis in female Swiss Webster mice; test: Chronic 2 week DSS-induced ulcerative colitis (N-404); format: in vivo, mouse
Description: Colitis was induced in female Swiss Webster mice by exposure to 3% DSS in the drinking water (ad libitum) on study Days 1-5 and maintained by exposure to 1% DSS in the drinking water (ad libitum) on study Days 6-15. Mice were randomly assigned to 4 groups of 15 animals (Table X). Mice were exposed to 3% DSS in drinking water on test Days 1 through 5 and 1% DSS on test Days 6-15, with concurrent intraperitoneal (IP) treatments of vehicle or CG53135-05 at 0.33, 1.67 and 3.33 mg/kg (UV) Days 6-14 after disease was established. Mice were weighed daily. On Day 15 animals were terminated by cervical dislocation, the colon length was measured, and colon content was scored. Tissues were collected into 10% neutral buffered formalin and processed routinely for histopathology.
Clinical Parameters and Gross Pathology: Only animals that survived the duration of the study were included in the analysis of body weight change, terminal colon lengths, and colon content scores. At necropsy, the colon length was measured and assessed for evidence of stool consistency changes. Colon content was scored at necropsy according to the following criteria: 0=Normal (firm, well formed stool); 1=Semi-solid stool; 2=Semi-solid to fluid stool; and 3=Semi-solid with definite evidence of blood, bloody fluid or no content.
Histopathology: At necropsy, the colon was harvested and divided into 2 approximately equal segments, proximal and distal, to assess regional changes induced in this model. Distal ends were marked to maintain orientation. These colon segments were collected, preserved in 10% neutral buffered formalin, and routinely processed for histopathologic evaluation. During processing for histology, the proximal and distal colon segments were each trimmed to obtain 4 equally spaced segments, and hematoxylin and eosin (H&E) stained slides were prepared for each. Both proximal and distal tissues were examined as these tissues are affected to different degrees of severity in this model (more severe and less variable symptoms predominate in the distal colon).
For each colon section, submucosal edema was quantified by measuring the distance (mm) from the muscularis mucosa to the internal border of the outer muscle layer. The extent of inflammation (foamy macrophages, lymphocytes and polymorphonuclear cell infiltrate) was assigned severity scores according to the following ranking: 0=Normal; 1=Minimal; 2=Mild; 3=Moderate; 4=Marked; and 5=Severe.
The parameters reflecting epithelial cell loss/damage were scored individually using a percent area involved scoring method. Parameters that were scored using the percent involvement scale included colon glandular loss and colon erosion. • 0=None • 1=1-10% of the mucosa affected • 2=11-25% of the mucosa affected • 3=26-50% of the mucosa affected • 4=51-75% of the mucosa affected • 5=76-100% of the mucosa affected
Mucosal epithelial hyperplasia (basophilia, mitotic figures, multilayered on basement membranes, absence of goblet cells) was scored 0-5 based on the following criteria • 0=Normal • 1=Minimal-small foci generally adjacent to the inflammatory changes • 2=Mild-11-25% of mucosa affected • 3=Moderate-26-50% of mucosa affected • 4=Marked-[…] of mucosa affected • 5=Severe-51-100% of mucosa affected plus papillary proliferation into lumen
Mucosal thickness (an indicator of proliferative changes or edematous inflammatory mucosal expansion) was measured by placing an ocular micrometer at the base of the glands and the overlying surface epithelium in a non-tangential area of section representative of the thickest areas of mucosa.
The scores for proximal tissues and distal colon were averaged to determine a score for the entire colon for each parameter evaluated. […]

[5] = 3.33 mg/kg (UV), non-significant

CG53135-05: Codon optimized, full length FGF-20, untagged; SEQ ID NOs 8 and 2
induction of DNA synthesis / activity in proliferation assays [1]: dose-dependent manner
proliferation of mesenchymal and epithelial cells [2]: induce proliferation
proliferation of endothelial cells (endothelial cells): not
severity of chronic DSS-induced ulcerative colitis [3]: significantly reduced the severity
reduction in weight loss ([4]; 0.33 mg/kg (UV) IP once daily Days 6-14): 19%
reduction in weight loss ([4]; 1.67 mg/kg (UV) IP once daily Days 6-14): 35%
improvement in "on" inflammation ([4]; 3.33 mg/kg (UV)): 35%
improvement in distal gland loss ([4]; 3.33 mg/kg (UV)): 38%
improvement in distal summed histopathologic scores ([4]; 3.33 mg/kg (UV)): 38%
improvement in total gland loss ([4]; 3.33 mg/kg (UV)): 37%
improvement in total inflammation ([4]; 3.33 mg/kg (UV)): 34%
improvement in total summed histopathologic scores ([4]; 3.33 mg/kg (UV)): 37%
reduction in weight loss ([4]; 3.33 mg/kg (UV) IP once daily Days 6-14): 67%
improvement in the hyperplasia score [4, 5]: 31%
inhibition of the total mucosal thickness [4, 5]: 39%
colon length, inhibition of decrease ([4]; 3.33 mg/kg (UV), statistically significant): 29%
improvement of colon scores ([4]; 1.67 or 3.33 mg/kg (UV)): 21-29%
inhibition of proximal, distal and total colon erosion ([4]; mid and high dose groups, non-significant): 46-62%
